As usually defined, the EC50 is the concentration needed to bring the measured effect to its halfway point.

The test system of one assay is Cat Flea. Kind of assay: Flea Contact Assay (FCA). The following applies: Cat Flea. Here is the method:
Flea Contact Assay (FCA)/Cat Flea: Test material is formulated in acetone at the desired exposure concentration and doubling dilutions performed to obtain a total of 10 testing levels. Approximately 0.05 ml of formulated material is dispensed into the bottom of a test tube containing a small amount of dog hair. Acetone is allowed to evaporate under a fume hood overnight. Approximately 10 mixed-sex adult cat flea are anesthetized using carbon dioxide and dispensed into each tube. Tubes are sealed using a ventilated plastic cap and incubated at 27° C. and 75-80% relative humidity. […] Nonlinear regression is used to model dose-mortality relationship and obtain relative potency (LD50) data compared to contemporaneous controls (acetone-only or fipronil).

The subject of the next assay is House Fly. Kind of assay: Adult House Fly Assay (AhsF). Further details: species or system Musca domestica. The following applies: 24 h, read-out: Potency (24 h EC50 μM). The protocol: Adult Stable or House Fly Assay (ASF, AhsF). This assay is conducted essentially as described in White, W. H., S. M. Bauer, X. Zhao et al., Comparison of in vitro and in vivo ectoparasiticide activity of an experimental benzimidazole-carbamate with permethrin and amitraz, J. Med. Entomol. 42, 207-211 (2005); and White, W. H., C. M. McCoy, J. A. Meyer et al., Knockdown and mortality comparisons among spinosad-, imidacloprid-, and methomyl-containing baits against susceptible Musca domestica (Diptera: Muscidae) under laboratory conditions, J. Econ. Entomol. 100, 155-163 (2007).
Test material is formulated in DMSO at 10 mM. Doubling dilutions in like solvent are made to yield 10 testing levels. Materials are diluted in either bovine serum (stable flies) or 5% glucose solution (house flies) to obtain desired exposure concentrations from 200-0.39 μM. Approximately 3 ml of diluted test material is placed into a test tube (n=3 per test level) and a dental wick is used to absorb fluid. One dental wick is placed into a small weigh boat inside of a 100 mm Petri dish. Approximately 10 mixed-sex adult flies are anesthetized using carbon dioxide and counted into each dish. Dishes are incubated at 27° C. and 50-70% relative humidity. Flies recover from anesthesia and feed on compound-soaked dental wicks. After 24 h, live/dead flies are enumerated. Nonlinear regression is used to model dose-mortality relationship and obtain relative potency (LD50) data compared to contemporaneous controls (solvent-only or permethrin).

The next assay concerns Boophilus annulatus. Kind of assay: Whole-body spray treatment of Boophilus annulatus infestations on cattle. Also noted: residual efficacy, mean percentage control of the IF, Week 3 / residual efficacy, mean percentage control of the IF, Week 4: concentration or dose not given beside the values; residual efficacy, mean percentage control of the IF, Week 2: tested at 0.025% (250 ppm). Format: in vivo. The protocol:
C) Efficacy Testing and comparison of topically applied spinetoram with spinosad for the treatment of Boophilus annulatus infestations on cattle. Technical spinetoram and technical spinosad both formulated as 25 g/L suspension concentrate formulations similar to commercial Elector. Stability assays (HPLC and LPT bioassays) were conducted to confirm potency over extended periods of time (5 weeks) at cool and shelf-temperatures. Cattle were pre-infested 21 d prior to treatment with larval-stage B. annulatus ticks resulting the presence of very high numbers of all three life-stages of this tick at the time of treatment. Test materials were diluted to 0.025% (250 ppm) and applied to cattle as whole-body topical sprays in a volume of 10 L per animal. There were a total of six animals per treatment group (n=6). Animals were housed in covered stalls under ambient conditions of temperature and humidity. Engorged, detached adult female ticks were retrieved from animals in each stall on a daily basis. Egg masses were weighed and eggs were set for hatching to assess viability. Efficacy was measured in terms of total numbers of female ticks per animal and index of fecundity (IF).
Means were tested by General Linear Model (GLM), 1-way ANOVA. Differences (P<0.05) among means were separated using Tukey's all pairwise comparison. Means within the same column followed by different letters were significant at the P<0.05 level.
Means were tested by General Linear Model (GLM), 2-way ANOVA with parasitic life stage and treatment group as main effects. NS denotes not significant.

For assay [1], the system named is Horn Fly (Haematobia irritans). Kind of assay: Cattle Ectoparasiticide Test, pour-on or spray against horn flies. The class given is in vivo. Particulars: cattle, Initial. The source says:
Cattle Ectoparasiticide Test (CET)/Horn Fly (Haematobia irritans) and/or Adult Tick (Amblyomma americanum): Cattle are housed in environmentally controlled rooms, 1 or 2 animals per room that have screened doors and ventilation system to prevent fly escape. Following treatment application, a defined number of horn flies are released into each room (typically at or above economic threshold of 200 flies per animal). After defined periods of time, the numbers of live horn flies remaining on animals are enumerated. If a combination horn fly and tick experiment is conducted, adult lone star ticks are placed into surgical stockinette enclosures that are glued onto the backs of cattle. Cattle are restrained in a modified head gate within environmentally controlled rooms. Horn flies may be enumerated, followed by determination of the numbers of dead ticks inside of containment units. Typically there are 2 containment units per animal and at least 2 animals per treatment group.
B) Therapeutic and residual efficacy testing of spinetoram and Elector against horn flies when applied topically to cattle as a pour-on or topical spray. Spinetoram (120 g/L), Elector (25 g/L spinosad) as described previously were used. Test material was applied to animals as either a whole-body topical spray or neat pour-on. Spinetoram was diluted in water to 25 g/L prior to application as a pour-on. Both materials were diluted in water to 0.04% (400 ppm) for application as a whole-body spray in a total volume of 1 L per animal. There were a total of six animals per treatment group (n=6) plus six negative control animals. Beef and dairy cattle were used. Following treatments, horn flies were released into rooms harboring cattle. Live flies were enumerated 24 h following challenges.

A further assay concerns Lone Star Tick. In words: Larval Packet Test (LPT). The following applies: Lone Star Tick larvae, 24 h. The protocol:
Larval Packet Test (LPT)/Ticks: Test material is formulated in a 2:1 ratio of trichloroethylene: olive oil. Tissue biopsy bags are saturated with 1 ml of formulated material (n=3 per test level), and bags are allowed to dry under a fume hood for at least 2 hours. Approximately 50-100 larval-stage ticks are placed into each bag, and the bag is sealed using a plastic dialysis clip and incubated for 24 h at 27° C. and 95% relative humidity. Bags are then opened, and live/dead ticks are enumerated. Nonlinear regression is used to model dose-mortality relationship and obtain relative potency (LD50) data compared to contemporaneous controls (solvent-only or fipronil).

[2] abbreviates: cattle, 0.025% AI whole-body spray, mean ± SD.

Where two headings read alike, the source gives them in different places.

`N#Cc1nn(-c2c(Cl)cc(C(F)(F)F)cc2Cl)c(N)c1[S+]([O-])C(F)(F)F` (stereo not drawn) [Fipronil, fipronil]: in the assay with Cat Flea, the “Potency (EC50 ng/cm^2) 24 h” value stood at 43.56 ng/cm^2 and the “Potency (EC50 ng/cm^2) 48 h” value was found to be 22.18 ng/cm^2. In the assay with House Fly (Musca domestica), the EC50 stood at 0.97 µM.
In the case of `O=[N+]([O-])NC1=NCCN1Cc1ccc(Cl)nc1` [Imidacloprid, imidacloprid], in the assay on Cat Flea, the “Potency (EC50 ng/cm^2) 24 h” value is 11.59 ng/cm^2 and the “Potency (EC50 ng/cm^2) 48 h” value is 7.737 ng/cm^2.
As to `CC1(C)C(C=C(Cl)Cl)C1C(=O)OCc1cccc(Oc2ccccc2)c1` (stereo not drawn) [Permethrin, permethrin], in the assay on Cat Flea, the “Potency (EC50 ng/cm^2) 24 h” value is reported as 63.30 ng/cm^2 and the “Potency (EC50 ng/cm^2) 48 h” value was 0.1580 ng/cm^2.
As for spinosad, in the assay on Cat Flea, the “Potency (EC50 ng/cm^2) 24 h” value was determined as 3.084 ng/cm^2 and the “Potency (EC50 ng/cm^2) 48 h” value amounted to 1.500 ng/cm^2. In addition, the EC50 in the assay on House Fly (House Fly) was 12 µM. In the assay on Boophilus annulatus (cattle, 0.025% AI), the “initial/knockdown activity against B. annulatus” value is recorded as “poor”. For the same molecule, in the assay on Boophilus annulatus (setting [2]), the “Number ♀♀ Ticks per Calf” value came out at 2423 ± 311 a and the “Total Index of Fecundity (IF)” value came out at 289 ± 40.1 a. In the assay with Boophilus annulatus (cattle, 0.025% AI whole-body spray, therapeutic efficacy), the “Percentage Control of the IF” value turned out to be 27.6 ± 10.0 a %. In addition, the “Percentage control, Adult” value in the assay with Boophilus annulatus (parasitic life stage adult, 0.025% AI) is recorded as 18.5 ± 13.0%. In addition, in the assay with Boophilus annulatus (parasitic life stage larva, 0.025% AI), the “Percentage control, Larval” value is reported as 33.1 ± 16.6%. The “Percentage control, Nymph” value in the assay on Boophilus annulatus (parasitic life stage nymph, 0.025% AI) is 32.9 ± 10.8%. For the same molecule, the “residual efficacy, mean percentage control of the IF, Week 1” value in the assay on Boophilus annulatus (ticks infested as larvae Week 1 after treatment) was determined as 97.6 ± 2.1%. For the same molecule, the “residual efficacy, mean percentage control of the IF, Week 2” value in the assay on Boophilus annulatus (ticks infested as larvae Week 2 after treatment) was 98.5 ± 1.2%. Also, in the assay on Boophilus annulatus (ticks infested as larvae Week 3 after treatment), the “residual efficacy, mean percentage control of the IF, Week 3” value is recorded as 89.4 ± 6.2%. Besides, the “residual efficacy, mean percentage control of the IF, Week 4” value in the assay on Boophilus annulatus (ticks infested as larvae Week 4 after treatment) is recorded as 89.7 ± 4.8%. Besides, the “GM percent horn fly reduction after 24 hrs, Pour-on” value in assay [1] (pour-on 2 mg/kg) stood at 99.9%. For the same molecule, in assay [1] (whole-body spray 0.04% AI), the “GM percent horn fly reduction after 24 hrs, Spray” value amounted to 100%. The “Potency (EC50)” value in the assay with Lone Star Tick is given as 189.6 ppm.

The values are drawn from patent US20150045313A1, “Ectoparasiticidal Methods and Formulations” (Eli Lilly and Company, priority 2009, published 2015).
